Values of other authors as cited in the PKSmart pharmacokinetics tables (Seal et al. 2025).

Assays:
[1] = Lombardo et al. 2013, J Clin Pharmacol 53:178, doi 10.1177/0091270012440282; settings: for Vd / clearance: in vivo, iv; for fraction unbound: plasma
[2] = Lombardo, Berellini, Obach 2018, Drug Metab Dispos 46:1466, doi 10.1124/dmd.118.082966; settings: human; for MRT / Vd / clearance / half-life: in vivo, iv; for fraction unbound: plasma

SMILES	Vd ([1]; rat) [L/kg]	clearance ([1]; rat) [mL/min/kg]	fraction unbound ([1]; rat)	MRT [2] [h]	Vd [2] [L/kg]	clearance [2] [mL/min/kg]	half-life [2] [h]	fraction unbound [2]	Vd ([1]; dog) [L/kg]	clearance ([1]; dog) [mL/min/kg]	fraction unbound ([1]; dog)	Vd ([1]; monkey) [L/kg]	clearance ([1]; monkey) [mL/min/kg]	fraction unbound ([1]; monkey)
Cc1nnc2n1-c1ccc(Cl)cc1C(c1ccccc1)=NC2	2.7	133	0.35	18	0.8	0.74	12	–	–	–	–	–	–	–
Nc1ccc(S(=O)(=O)c2ccc(N)cc2)cc1	1.6	5.2	–	29	0.83	–	–	0.25	–	–	–	–	–	–
O=C1CN=C(c2ccccc2Cl)c2cc([N+](=O)[O-])ccc2N1	3.1	70.5	–	55	2.9	0.88	38	–	2.49	24	0.18	6.8	14.3	0.121
CC1CC(=O)NN=C1c1ccc(NN=C(C#N)C#N)cc1 (centres undefined)	–	–	–	1.1	0.24	3.8	1.1	0.02	0.22	3.37	–	–	–	–
Nc1cc(-c2ccncc2)c[nH]c1=O	–	–	–	2.4	1.3	8.9	2	0.89	1.2	6	–	–	–	–
CCC(C)C(=O)O[C@H]1C[C@H](O)C=C2C=C[C@H](C)[C@H](CC[C@@H](O)C[C@@H](O)CC(=O)O)[C@H]21 (some centres undefined)	0.19	36	0.33	–	0.46	14	0.78	–	–	–	–	–	–	–
Cc1ncc([N+](=O)[O-])n1CCO	1.2	5.8	–	7.8	0.4	0.85	7.1	–	0.1	2.5	0.983	–	–	–
c1ccc2c(c1)OCC(C1=NCCN1)O2 (centres undefined)	3.1	71.2	–	5.5	3.3	10	4.2	–	–	–	–	–	–	–
C[C@H]1NCc2cc(-c3ccc4c(=O)c(C(=O)O)cn(C5CC5)c4c3OC(F)F)ccc21	0.9	12.1	0.13	13.7	1	1.23	–	0.25	1.29	2.43	0.23	0.96	3.39	0.19
CN(c1nc2ccccc2s1)C1CCN(C[C@H](O)COc2ccc(F)c(F)c2)CC1	–	–	0.008	–	–	–	–	0.003	–	–	–	–	–	–
OC(Cn1cncn1)(Cn1cncn1)c1ccc(F)cc1F	0.97	4.2	0.9	40	0.75	0.31	30	–	0.7	0.65	–	–	–	–
CS(=O)(=O)OCCCCOS(C)(=O)=O	0.68	5	0.91	3.8	0.55	2.4	3.4	–	1	19.2	–	–	–	–
CCOC(=O)C1(c2ccccc2)CCN(C)CC1	9.2	245	–	6.4	2.3	4.9	7.9	0.42	2.4	43	–	–	–	–
CCC#CC[C@H](C)[C@H](O)C#C[C@@H]1[C@H]2C/C(=C/COCC(=O)O)C[C@H]2C[C@H]1O	1	49	–	0.35	0.08	3.8	1.1	–	–	–	–	1.2	14.3	–
O=C1c2ccccc2S(=O)(=O)N1CCCCNC[C@H]1CCc2ccccc2O1	1.48	38.3	0.054	1.6	0.21	2.2	1.2	–	–	–	–	–	–	–
CC(C)(C)NCC(O)c1cc(O)cc(O)c1 (centres undefined)	3.3	60	–	7.4	1.5	3.4	15	–	–	–	–	–	–	–
CCCCCN(CCCOC)C(=O)C(CCC(=O)O)NC(=O)c1ccc(Cl)c(Cl)c1 (centres undefined)	0.98	6.01	0.0093	2.4	0.21	2.35	3.2	–	0.34	30.7	0.021	–	–	–
c1ccc(C2(N3CCCCC3)CCCCC2)cc1	12.6	66.3	0.37	23	6.9	5.1	16	–	16.6	54.1	0.43	6.78	36.6	0.314
Nc1ccn([C@@H]2O[C@H](CO)[C@@H](O)C2(F)F)c(=O)n1	1	5	0.93	0.81	1.5	32	1	1	1.41	10.8	0.765	5.5	177	–
CC(C)Oc1ccccc1N1CCN(Cc2cccc(C(=O)N3CCCCC3)c2)CC1	1.73	39.2	0.03	4.2	1.54	6.17	4.6	–	–	–	–	–	–	–
CN1CCCC(n2nc(Cc3ccc(Cl)cc3)c3ccccc3c2=O)CC1 (centres undefined)	1.8	58	0.1	27	15	9	22	0.17	8.1	50	0.0826	–	–	–
C=c1cc(C)[nH]c1=Cc1c(O)[nH]c2ccccc12	1.6	45	0.007	1.17	0.98	14	0.83	0.008	1.4	52	–	1.63	27.7	–
COc1ccc(CCNCC(O)COc2cccc(C)c2)cc1OC (centres undefined)	–	–	0.06	2	0.67	5.5	1.9	0.015	4	45	0.04	–	–	–
Nc1ccn([C@@H]2CO[C@H](CO)O2)c(=O)n1	1.42	23	–	6.9	1	2.4	82	–	–	–	–	–	–	–
OCCN1CCN(CCCN2c3ccccc3Sc3ccc(C(F)(F)F)cc32)CC1	–	–	–	5	2.9	9.7	12.3	0.04	5.5	15.4	–	–	–	–
C[C@@H]1CN(c2c(F)c(N)c3c(=O)c(C(=O)O)cn(C4CC4)c3c2F)C[C@H](C)N1	3.5	19.6	0.5	24	3.9	2.7	20	–	–	–	–	–	–	–
C#CCCCC(=O)c1cc(C(C)(C)C)c(O)c(C(C)(C)C)c1	7.9	41.4	–	22.3	12	8.9	50.7	–	24.8	30.9	–	10.4	14.9	–
COc1ccnc(C[S+](O)c2nc3ccc(OC(F)F)cc3[n-]2)c1OC (centres undefined)	0.35	8.5	–	1.3	0.17	2.2	1.9	0.02	–	–	–	–	–	–
COc1cccc2c1C(=O)c1c(O)c3c(c(O)c1C2=O)C[C@@](O)(C(=O)CO)C[C@@H]3O[C@H]1C[C@H](N)[C@H](I)[C@H](C)O1	14	36.6	–	6.4	53.6	140	10.3	–	2.6	6.5	–	14	43.3	–
